These results are taken from article PMC9822280, “A Rapid and Sensitive Liquid Chromatography-Tandem Mass Spectrometry Bioanalytical Method for the Quantification of Encorafenib and Binimetinib as a First-Line Treatment for Advanced (Unresectable or Metastatic) Melanoma—Application to a Pharmacokinetic Study” (Molecules, 2022).

Data set [1] can be described thus: Pharmacokinetic study in rats after oral administration of binimetinib and encorafenib. The class given is in vivo. Conditions: male, Wistar, rat plasma, oral 3.8 mg/kg binimetinib and 20 mg/kg encorafenib, fasting; for AUC(0-t) / AUC(0-inf) / Cmax / MRT inf / half-life: mean ± SD; for AUC(0-t): read-out: AUC0-t (area under the curve up to the last sampling time); for AUC(0-inf): read-out: AUC0-∞ (area under the curve extrapolated to infinity); for Cmax: read-out: Cmax (maximum plasma concentration); for MRT inf: read-out: MRT0-∞ (mean residence time); for half-life: read-out: t1/2kel (half-life in elimination phase) (converted); for Tmax: read-out: Tmax (time taken to reach the maximum plasma concentration). On the procedure:
The newly developed and validated LC-MS/MS assay was effectively applied to evaluate BNB and ENF in rat plasma for a pharmacokinetic study after oral administration of 3.8 mg/kg BNB and 20 mg/kg ENF for four healthy male Wistar rats under fasting conditions. […] The values acquired in the current investigation for BNB for t1/2kel and Cl/F parameters are consistent with in vivo BNB PK studies. Furthermore, the Tmax parameter for BNB is similar to that represented in a recently published paper.
Four healthy male Wistar rats (220–250 g) were brought from the Animal Care Center of King Saud University (Saudia Arabia). All experimental procedures were reviewed in accordance with the guidelines of King Saud University Institutional Research Ethics Committee (REC) with an ethics reference number (SE-19–109). Rats were acclimatized for 7 days to laboratory environments before the experiment was directed. Diet was prohibited for 12 h before the experiment, but the water was freely available. The dose of drugs was determined according to the body surface area employing the below-mentioned formula [22]. Human dose (mg/kg) = Animal dose (mg/kg) × animal Km/Human Km
Km is a factor used in dose conversion. It is a ratio of average body weight (kg) and body surface area (m^2). Km values for the rat and human are 6 and 37, respectively. Human dose for BNB and ENF was considered as 90 and 450 mg, respectively.
Blood samples (300 μL) were collected into heparinized 1.5 mL polythene tubes containing ethylenediamine tetraacetic acid dipotassium (EDTA K2) (anticoagulant) before drug administration and at 0.15, 0.5, 1, 2, 4, 6, 8, 12, 18, and 24 h after oral administration of binimetinib (3.8 mg/kg) and encorafenib (20 mg/kg). In the current study, both drugs were dissolved in 1% DMSO/saline. The samples were directly centrifuged at 3500 rpm for 10 min at 4 °C. The plasma obtained was stored at −80 °C until analysis. The same method of extraction described under calibration standards preparation (2.4.) was used for sample preparation. The PK parameters of BNB and ENF such as Cmax, Tmax, t1/2kel, AUC0–24, and AUC0–∞ were calculated by fitting the data to a non-compartmental analysis (NCA) model with PK Solver Add-In software.

A short description of data set [2]: Stability of binimetinib and encorafenib in rat plasma under different storage conditions. It is filed as in vitro ADME. Conditions: for recovery at 24 h, 2400 ng/mL / recovery at 2400 ng/mL / recovery at 30 days, 2400 ng/mL: HQC 2400 ng/mL; for recovery at 2400 ng/mL / recovery at 1.5 ng/mL / recovery at 1800 ng/mL: n 3, read-out: Freeze and Thaw Stability at −80 °C (3 Cycles), Recovery (%); for recovery at 30 days, 2400 ng/mL / recovery at 30 days, 1.5 ng/mL / recovery at 30 days, 1800 ng/mL: n 3, read-out: Long Term Stability at −80 °C (30 Days), Recovery (%); for recovery at 24 h, 1.5 ng/mL / recovery at 1.5 ng/mL / recovery at 30 days, 1.5 ng/mL: LQC 1.5 ng/mL; for recovery at 24 h, 1800 ng/mL / recovery at 1800 ng/mL / recovery at 30 days, 1800 ng/mL: MQC 1800 ng/mL. On the procedure: An important process of bioanalytical method validation is stability assessment. Stability of BNB and ENF was studied throughout the analysis of three QC samples (LQC, MQC and HQC) of each drug after the application of the different storage conditions. The different parameters investigated include short-term stability at room temperature for 24 h, autosampler stability at 10 °C for 24 h, three freeze and thaw cycles after storing at −80 °C, and long-term stability at −80 °C for 30 days. The results of stability experiments were satisfactory and complied with the accuracy criteria of ±15% of its theoretical concentration.
The stability of ENF and BNB was assessed after exposing the QC samples at LQC, MQC, and HQC to different storage conditions (temperature and time). The applied conditions include short-term stability at room temperature for 24 h in an autosampler for 24 h at 10 °C. Long-term stability was assessed after storing QCs for 30 days at −80 °C. Freeze and thaw stability were evaluated after three freezing and thawing cycles and compared with freshly prepared QCs. Moreover, the stock solution stability for ENF and BNB and IS was studied at a temperature of 5 ± 2 °C. All sample accuracies should be ± 15% to be considered stable.

The mark [3] stands for this setting: n 3, read-out: Autosampler Stability at 10 °C (24 h), Recovery (%).
Where [4] appears, read: n 3, read-out: Short Term Stability at Room Temperature (24 h), Recovery (%).

Read-outs that look alike come from different tables or passages of the source.

In the case of `Cn1cnc2c(F)c(Nc3ccc(Br)cc3F)c(C(=O)NOCCO)cc21` [Binimetinib, binimetinib], in data set [1], the AUC(0-t) was determined as 12400 ± 1860 ng·h/mL, the AUC(0-inf) is 18200 ± 1310 ng·h/mL, the Cmax was 3430 ± 460 ng/mL and the MRT inf was found to be 4.5 ± 0.28 h. Further, in data set [1], the half-life is 3.39 ± 0.43 h and the Tmax came out at 1 h. In data set [2] (setting [3]), the recovery at 24 h, 2400 ng/mL worked out at 95.4%; the recovery at 24 h, 1.5 ng/mL worked out at 97.3%; the recovery at 24 h, 1800 ng/mL worked out at 104%. Also, in data set [2], the recovery at 2400 ng/mL is 95.2%; the recovery at 30 days, 2400 ng/mL turned out to be 94.8%; the recovery at 1.5 ng/mL came out at 104%; the recovery at 30 days, 1.5 ng/mL turned out to be 95.5%. Moreover, in data set [2], the recovery at 1800 ng/mL turned out to be 104% and the recovery at 30 days, 1800 ng/mL turned out to be 104%. Moreover, in data set [2] (setting [4]), the recovery at 24 h, 2400 ng/mL was found to be 93.4%; the recovery at 24 h, 1.5 ng/mL was found to be 96.2%; the recovery at 24 h, 1800 ng/mL amounted to 103%.

Take `COC(=O)N[C@@H](C)CNc1nccc(-c2cn(C(C)C)nc2-c2cc(Cl)cc(NS(C)(=O)=O)c2F)n1` [Encorafenib, encorafenib]: in data set [1], the AUC(0-t) worked out at 30300 ± 3010 ng·h/mL, the AUC(0-inf) is 36500 ± 3920 ng·h/mL, the Cmax turned out to be 16400 ± 1470 ng/mL and the MRT inf was determined as 3.23 ± 0.4 h. Moreover, in data set [1], the half-life is 2.48 ± 0.24 h and the Tmax was found to be 1 h. Further, in data set [2] (setting [3]), the recovery at 24 h, 2400 ng/mL is 92.4%; the recovery at 24 h, 1.5 ng/mL worked out at 96.6%; the recovery at 24 h, 1800 ng/mL was found to be 99.8%. For the same molecule, in data set [2], the recovery at 2400 ng/mL is 96.5%; the recovery at 30 days, 2400 ng/mL turned out to be 94.6%; the recovery at 1.5 ng/mL stood at 99.5%; the recovery at 30 days, 1.5 ng/mL came to 97.5%. For the same molecule, in data set [2], the recovery at 1800 ng/mL was found to be 96.8% and the recovery at 30 days, 1800 ng/mL was 102%. Further, in data set [2] (setting [4]), the recovery at 24 h, 2400 ng/mL came out at 94.5%; the recovery at 24 h, 1.5 ng/mL amounted to 95.2%; the recovery at 24 h, 1800 ng/mL was determined as 103%.
